Measurements published in ChEMBL document CHEMBL1130981, “DNA gyrase inhibitory activity of ellagic acid derivatives” (Bioorg Med Chem Lett, 1998).

Target: DNA gyrase (Escherichia coli, UniProt P0AES4+P0AES6)
Test: Inhibition of DNA gyrase supercoiling in Escherichia coli.
Format: protein-complex assay

Row | SMILES | IC50 [µM]
1 | O=c1oc2c(O)c(O)ccc2c2ccc(O)cc12 | 328
2 | O=c1oc2c(O)c(O)ccc2c2cc(F)ccc12 | 447
3 | O=c1oc2cc(O)c(O)cc2c2cc(O)c(O)cc12 | 307
4 | O=c1oc2c(F)c(F)ccc2c2cc(O)c(O)cc12 | 151
5 | Cc1cc(O)c(O)c2oc(=O)c3cc(O)c(O)cc3c12 | 511
6 | O=c1oc2c(Cl)c(Cl)ccc2c2cc(O)c(O)cc12 | 942
7 | Cc1cc(O)c(O)c2oc(=O)c3ccc(F)cc3c12 | > 1920
8 | O=c1oc2c(O)c(O)ccc2c2cc(O)c(O)cc12 | 500
9 | O=C1c2cc(O)c(O)cc2-c2cc(O)c(O)cc21 | 53.2
10 | O=c1oc2cc(O)c(O)cc2c2cc(F)ccc12 | 1500
11 | ONC1c2cc(O)c(O)cc2-c2cc(O)c(O)cc21 | 7.66
12 | O=c1oc2ccccc2c2ccccc12 | > 2550
13 | O=c1oc2c(O)c(O)ccc2c2ccccc12 | > 2190
14 | O=c1oc2ccccc2c2cc(O)c(O)cc12 | > 2190
15 | O=c1oc2c(O)c(O)cc3c(=O)oc4c(O)c(O)cc1c4c23 [ELLAGIC ACID] | 156
